According to article PMC10687260, “1,3-Diphenylureido hydroxamate as a promising scaffold for generation of potent antimalarial histone deacetylase inhibitors” (Scientific Reports, 2023):

Assays:
acetylated histone H4 = test: Western blot of acetylated histone H4 in infected erythrocytes; format: cell-based, Plasmodium falciparum; details: 10 × IC50 for 4 h, trophozoites, vs DMSO
Method: (§1) Figure 5 Hydroxamic acid derivatives as potent in vitro PfHDAC1 inhibitors. […]. Enzyme activity was calculated by normalizing the data against the DMSO treated samples and discounting the background. Data are presented as shown above, with mean ± S.D. (n = 2). […]. Comparison of group/concentration against the DMSO control is represented as † for P < 0.0001. […]. Numbers on side of the bands represent the predicted mass (kDa) for each protein. (C,D) Band quantification of histone H3 (C) and H4 (D), respectively, normalizing their acetylated detection against their unmodified version. Differences to this value were analyzed by one way ANOVA using the Dunnett’s post correction, comparing each group against the DMSO control, as rank tests where P values are explicitly depicted.
(§2) Western Blot analysis. […]. Proteins were transferred to PVDF membranes, 5% non-fat dry milk in TBS with Tween 20 (0.1%) was used as blocking agent for 1 h at room temperature. After, incubated with the antibodies overnight at 4 °C (Acetyl Histone H3 Lys9 C5B11 Cell Signaling, Acetyl Histone H4 Lys16 E2B8W Cell Signaling, Histone H3 96C10 Cell Signaling and Histone H4 D2X4V Cell Signaling). For the analysis of protein acetylation levels, the membranes were stripped and re-probed with the corresponding anti-total protein. Mouse monoclonal anti-α-Tubulin (B512 Sigma-Aldrich) was used as loading control. Detection was performed by enhanced chemiluminescence using horseradish peroxidase-conjugated secondary antibodies (Vector Laboratories, Burlingame, CA, USA) and SuperSignal TM West Pico PLUS Chemiluminescent substrate kit (Thermo Scientific). Images were acquired using ChemiDoc TM Imaging System (BioRad Laboratories, CA, USA). Quantitative densitometry was carried out using ImageLab software (Bio-Rad Laboratories, CA, USA). The volume density of the chemiluminescent bands was calculated as an integrated optical density × mm^2 after background correction from each independent experiment (N = 3).

acetylated histone H3 = test: Western blot of acetylated histone H3 in infected erythrocytes; format: cell-based, Plasmodium falciparum; details: 10 × IC50 for 4 h, trophozoites, vs DMSO
Method: as §1, §2

Jurkat = tested on: Jurkat; parameters: method as in PMID 33668008; details: Fig. 1A; cited from earlier work
Namalwa = tested on: Namalwa; parameters: method as in PMID 33668008; details: Fig. 1A; cited from earlier work
P. falciparum Dd2 = test: Antiplasmodial SYBR Green I proliferation assay, P. falciparum Dd2; format: cell-based; details: Plasmodium falciparum, DD2; multidrug/CQ-resistant strain; read-out: IC50 P. falciparum Dd2
Source text: Antiplasmodial activity against P. falciparum 3D7 (A, C and E) and P. falciparum Dd2 (B, D, F). […] Curves were plotted using non-linear regression based on means from three independent experiments measured in triplicate. Error bars indicate standard deviation, whose values are provided in the respective table.
Plasmodium falciparum culture and antiplasmodial activity. […] Development, parasitaemia, and morphology of parasites were monitored by light microscopy of thin blood smears stained according to the Romanowsky method (Panótico Rápido staining kit; Laborclin, Pinhais, Paraná, Brazil). […] Fresh 0^+ blood was generously provided by “Hospital Novo Atibaia” (Atibaia, SP, Brazil), and approved by the ethics committee at ICB-USP. The antiplasmodial effect of all compounds was validated against P. falciparum 3D7 strain conducting SYBR Green I (Invitrogen) drug assays as previously reported[30],[46] as a modification of the original procedure. […] Parasite proliferation was measured by the DNA load via fluorescence, using 100 μL of a lysis buffer with SYBR Green I (0.02% v/v) and incubated for 1 h at room temperature in the dark. […] Focal and gain adjustment was performed using the non-treated controls (highest expected fluorescence signal). Data was acquired via the CLARIOstar (V5.20) and MARS software, manually scaled to 0–100%, and plotted using GraphPad Prism (v9.5.2 for Windows, GraphPad Software, La Jolla California USA, www.graphpad.com). Non-treated parasites, the highest solvent concentration on parasites, CQ on parasites, and the highest drug concentration in the medium were used as controls for maximal growth, solvent control, positive biological control, and native drug fluorescence, respectively.

Row | SMILES | Acetylated-H4 level (normalised to unmodified H4) (acetylated histone H4) | Acetylated-H3 level (normalised to unmodified H3) (acetylated histone H3) | IC50 (Jurkat) | IC50 (Namalwa) | IC50 (P. falciparum Dd2)
1 | COc1ccc(NC(=O)Nc2ccc(/C=C/C(=O)NO)cc2)cc1 [Compound 6c, (E)-N-hydroxi-3-(4-(3-(4-methoxyphenyl)ureido)phenyl)acrylamide] | significant elevation | – | – | – | –
2 | COc1ccc(NC(=O)Nc2ccc(CCC(=O)NO)cc2)cc1 [Compound 7c, N-hydroxy-3-(4-(3-(4-methoxyphenyl)ureido)phenyl)propanamide] | – | two-fold increase | – | – | –
3 | O=C(Nc1ccccc1)Nc1ccc(C(=O)NO)cc1 [Compound 8a, N-hydroxy-4-(3-phenylureido)bezamide] | – | – | 2500 nM | 530 nM | –
4 | COc1ccc(NC(=O)Nc2ccc(C(=O)NO)cc2)cc1 [Compound 8c, N-hydroxy-4-(3–4(-methoxyphenyl)ureido)benzamide] | significant elevation | two-fold increase | – | – | 800 nM
